Measured values reported in patent publication US9815787B2, “Sulfonamide derivative or pharmaceutically acceptable acid addition salt thereof” (UNIVERSITY OF TSUKUBA, priority 2013, dated 2017).

Molecular target: T1, OX2R (Homo sapiens, UniProt O43614)
T1 construct: expressed in transfected cells; host or cells: CHO (Chinese hamster ovary) cells constitutively expressing the OX2R gene and NFAT-luciferase (CHOOX2R)
T1 sequence (O43614 1-444): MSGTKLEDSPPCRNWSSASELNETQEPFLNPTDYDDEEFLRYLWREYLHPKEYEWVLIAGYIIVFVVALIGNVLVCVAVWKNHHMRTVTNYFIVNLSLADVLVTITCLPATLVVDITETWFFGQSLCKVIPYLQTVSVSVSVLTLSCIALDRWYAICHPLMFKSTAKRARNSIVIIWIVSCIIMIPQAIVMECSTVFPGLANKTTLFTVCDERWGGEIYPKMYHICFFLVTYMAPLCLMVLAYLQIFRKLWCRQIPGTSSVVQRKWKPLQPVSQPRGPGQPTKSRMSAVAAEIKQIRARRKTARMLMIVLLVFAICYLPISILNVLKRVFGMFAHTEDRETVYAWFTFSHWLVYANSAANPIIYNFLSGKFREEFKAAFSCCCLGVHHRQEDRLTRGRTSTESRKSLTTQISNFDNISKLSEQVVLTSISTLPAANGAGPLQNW
Experiment: Evaluation of agonist activity against OX2R (CHOOX2R cells, Fura2AM fluorescence, FDSS3000)
Assay type: cell-based
Conditions: for Response (0.1 μM (%)): test compound 0.1 μM; for Response (0.1 μM (%)) / Response (1.0 μM (%)) / Response (10 μM (%)) / EC50: CHOOX2R cells; for Response (0.1 μM (%)) / Response (1.0 μM (%)) / Response (10 μM (%)): relative to orexin-A as full agonist (100%); for Response (1.0 μM (%)): test compound 1.0 μM; for Response (10 μM (%)): test compound 10 μM; for EC50: OX2R agonist activity; for Emax: conversion with orexin-A as full agonist (maximum agonist activity 100%)
Outline: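 CHO cells stably expressing human OX2R (and NFAT-luciferase), cultured 48 h in 5% FBS DMEM. Agonist response read as change in Fura2AM fluorescence on compound addition in HEPES buffer. Final compound concentrations 0.1, 1.0 or 10 μM; 1% DMSO.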

Response (0.1 μM (%)) [%]	Response (1.0 μM (%)) [%]	Response (10 μM (%)) [%]	EC50 [nM]	Emax [%]	SMILES
<5	43	75			COc1ccc(-c2cccc(C(=O)N(C)C)c2)cc1S(=O)(=O)Nc1cccc(NCCNC(=O)c2sccc2C)c1 [Example 60, N-(2-((3-(3′-(dimethylcarbamoyl)-4-methoxy-[1,1′-biphenyl]-3-ylsulfonamido)phenyl)amino)ethyl)-3-methylthiophene-2-carboxamide]
<5	18	69			COc1ccc(-c2cccc(C(=O)N(C)C)c2)cc1S(=O)(=O)Nc1cccc(NCCNC(=O)c2ccc(Cl)s2)c1 [Example 61, 5-chloro-N-(2-((3-(3′-(dimethylcarbamoyl)-4-methoxy-[1,1′-biphenyl]-3-ylsulfonamido)phenyl)amino)ethyl)thiophene-2-carboxamide]
71	92	94	102	99	COc1ccc(-c2cccc(C(=O)N(C)C)c2)cc1S(=O)(=O)Nc1cccc(NCCNC(=O)c2sccc2Cl)c1 [Example 62, 3-chloro-N-(2-((3-(3′-(dimethylcarbamoyl)-4-methoxy-[1,1′-biphenyl]-3-ylsulfonamido)phenyl)amino)ethyl)thiophene-2-carboxamide]
74	96	74	800	85	COc1ccc(-c2cccc(C(=O)N(C)C)c2)cc1S(=O)(=O)Nc1cccc(NCCNC(=O)c2ccccc2C)c1 [Example 65, 4′-methoxy-N,N-dimethyl-3′-(N-(3-((2-(2-methylbenzamido)ethyl)amino)phenyl)sulfamoyl)-[1,1′-biphenyl]-3-carboxamide]
55	96	76			COc1ccc(-c2cccc(C(=O)N(C)C)c2)cc1S(=O)(=O)Nc1cccc(NCCNC(=O)c2ccoc2C)c1 [Example 67, N-(2-((3-(3′-(dimethylcarbamoyl)-4-methoxy-[1,1′-biphenyl]-3-ylsulfonamido)phenyl)amino)ethyl)-2-methylfuran-3-carboxamide]
42	86	74			COc1ccc(-c2cccc(C(=O)N(C)C)c2)cc1S(=O)(=O)Nc1cccc(NCCNC(=O)c2occc2C)c1 [Example 68, N-(2-((3-(3′-(dimethylcarbamoyl)-4-methoxy-[1,1′-biphenyl]-3-ylsulfonamido)phenyl)amino)ethyl)-3-methylfuran-2-carboxamide]
<5	39	80			COc1ccc(-c2cccc(C(=O)N(C)C)c2)cc1S(=O)(=O)Nc1cccc(NCCNC(=O)c2ccccc2C#N)c1 [Example 71, 3′-(N-(3-((2-(2-cyanobenzamido)ethyl)amino)phenyl)sulfamoyl)-4′-methoxy-N,N-dimethyl-[1,1′-biphenyl]-3-carboxamide]
<5	16	88			COc1ccc(-c2cccc(C(=O)N(C)C)c2)cc1S(=O)(=O)Nc1cccc(NCCNC(=O)c2cccc(C#N)c2)c1 [Example 72, 3′-(N-(3-((2-(3-cyanobenzamido)ethyl)amino)phenyl)sulfamoyl)-4′-methoxy-N,N-dimethyl-[1,1′-biphenyl]-3-carboxamide]

Second part, the compound before the results:

SMILES	Response (0.1 μM (%)) [%]	Response (1.0 μM (%)) [%]	Response (10 μM (%)) [%]	EC50 [nM]	Emax [%]
COc1ccc(-c2cccc(C(=O)N(C)C)c2)cc1S(=O)(=O)Nc1cccc(NCCNC(=O)c2nccn2C)c1 [Example 63, N-(2-((3-(3′-(dimethylcarbamoyl)-4-methoxy-[1,1′-biphenyl]-3-ylsulfonamido)phenyl)amino)ethyl)-1-methyl-1H-imidazole-2-carboxamide]	<5	81	82		
COc1ccc(-c2cccc(C(=O)N(C)C)c2)cc1S(=O)(=O)Nc1cccc(NCCNC(=O)c2cn(C)cn2)c1 [Example 64, N-(2-((3-(3′-(dimethylcarbamoyl)-4-methoxy-[1,1′-biphenyl]-3-ylsulfonamido)phenyl)amino)ethyl)-1-methyl-1H-imidazole-4-carboxamide]	<5	68	72		
COc1ccc(-c2cccc(C(=O)N(C)C)c2)cc1S(=O)(=O)Nc1cccc(NCCNC(=O)c2ccccc2C(F)(F)F)c1 [Example 69, 4′-methoxy-N,N-dimethyl-3′-(N-(3-((2-(2-(trifluoromethyl)benzamido)ethyl)amino)phenyl)sulfamoyl)-[1,1′-biphenyl]-3-carboxamide]	67	123	111		
COc1ccc(-c2cccc(C(=O)N(C)C)c2)cc1S(=O)(=O)Nc1cccc(NCCNC(=O)c2c(F)cccc2OC)c1 [Example 70, 3′-(N-(3-((2-(2-fluoro-6-methoxybenzamido)ethyl)amino)phenyl)sulfamoyl)-4′-methoxy-N,N-dimethyl-[1,1′-biphenyl]-3-carboxamide]	34	105	85		
CNC(=O)c1cccc(-c2ccc(OC)c(S(=O)(=O)Nc3cccc(NCCNC(=O)c4ccccc4OC)c3)c2)c1 [Example 73, 4′-methoxy-3′-(N-(3-((2-(2-methoxybenzamido)ethyl)amino)phenyl)sulfamoyl)-N-methyl-[1,1′-biphenyl]-3-carboxamide]	45	90	98	182	98
COc1ccccc1C(=O)NCCNc1cccc(NS(=O)(=O)c2cc(-c3cccc(C(=O)NCCO)c3)ccc2OC)c1 [Example 74, N-(2-hydroxyethyl)-4′-methoxy-3′-(N-(3-((2-(2-methoxybenzamido)ethyl)amino)phenyl)sulfamoyl)-[1,1′-biphenyl]-3-carboxamide]	<5	51	92		
COc1ccccc1C(=O)NCCNc1cccc(NS(=O)(=O)c2cc(-c3cccc(C(=O)N4CCCC4)c3)ccc2OC)c1 [Example 75, 2-methoxy-N-(2-((3-(4-methoxy-3′-(pyrrolidine-1-carbonyl)-1-[1,1′-biphenyl]-3-ylsulfonamide)phenyl)amino)ethyl)benzamide]	49	87	76	77	87
COc1ccccc1C(=O)NCCNc1cccc(NS(=O)(=O)c2cc(-c3cccc(C(=O)N(C)C(C)(C)C)c3)ccc2OC)c1 [Example 76, N-(tert-butyl)-4′-methoxy-3′-(N-(3-((2-(2-methoxybenzamido)ethyl)amino)phenyl)sulfamoyl)-N-methyl-[1,1′-biphenyl]-3-carboxamide]	24	95	98		
COCCN(C)C(=O)c1cccc(-c2ccc(OC)c(S(=O)(=O)Nc3cccc(NCCNC(=O)c4ccccc4OC)c3)c2)c1 [Example 77, 4′-methoxy-3′-(N-(3-((2-(2-methoxybenzamido)ethyl)amino)phenyl)sulfamoyl)-N-(2-methoxyethyl)-N-methyl-[1,1′-biphenyl]-3-carboxamide]	42	91	82		
COc1ccccc1C(=O)NCCNc1cccc(NS(=O)(=O)c2cc(-c3cccc(C(=O)NCC(F)(F)F)c3)ccc2OC)c1 [Example 78, 4′-methoxy-3′-(N-(3-((2-(2-methoxybenzamido)ethyl)amino)phenyl)sulfamoyl)-N-(2,2,2-trifluoroethyl)-[1,1′-biphenyl]-3-carboxamide]	<5	33	49		
COc1ccccc1C(=O)NCCNc1cccc(NS(=O)(=O)c2cc(-c3ccccc3C(=O)N(C)C)ccc2OC)c1 [Example 79, 4′-methoxy-3′-(N-(3-((2-(2-methoxybenzamido)ethyl)amino)phenyl)sulfamoyl)-N,N-dimethyl-[1,1′-biphenyl]-2-carboxamide]	<5	18	34		
COc1ccccc1C(=O)NCCNc1cccc(NS(=O)(=O)c2cc(-c3cccc(C(=O)N4CCCCC4)c3)ccc2OC)c1 [Example 80, 2-methoxy-N-(2-((3-(4-methoxy-3′-(piperidine-1-carbonyl)-1-[1,1′-biphenyl]-3-ylsulfonamido)phenyl)amino)ethyl)benzamide]	37	91	91		
COc1ccccc1C(=O)NCCNc1cccc(NS(=O)(=O)c2cc(-c3cccc(C(=O)N4CCC4)c3)ccc2OC)c1 [Example 81, N-(2-((3-(3′-(azetidine-1-carbonyl)-4-methoxy-[1,1′-biphenyl]-3-ylsulfonamido)phenyl)amino)ethyl)-2-methoxybenzamide]	75	98	98	365	85
